Here are results for one compound from US9221765B2, “Inhibition and dispersion of bacterial biofilms with benzimidazole derivatives” (North Carolina State University, priority 2009, dated 2015).

Counter-ions that a name gives are not always drawn.

Test [1] relates to vancomycin-resistant Enterococcus faecium (VRE). The experiment in a line: Dispersion of preformed VRE (E. faecium) biofilm. The format is cell-based. Conditions: concentration that disperses 50% of a pre-formed biofilm. As for the experimental part: (§1) A dose-response study was then initiated in which both the IC50 and EC50 value of each compound towards the bacterial strains were determined (Table 1). Here, IC50 is defined as the concentration of compound that inhibits 50% biofilm development while EC50 is defined as the concentration of compound that disperses 50% of a pre-formed biofilm.
Procedure to Determine the Dispersal Effect of Test Compounds on E. faecium, MRSA and S. epidermidis Preformed Biofilms:
Dispersion assays were performed by taking an overnight culture of bacterial strain and subculturing it at an OD600 of 0.01 into the necessary media (brain heart infusion for E. faecium, tryptic soy broth with a 0.5% glucose supplement (TSBG) for MRSA and tryptic soy broth with a 0.5% glucose supplement and a 3.0% NaCl supplement (TGN) for S. epidermidis. The resulting bacterial suspension was aliquoted (100 μL) into the wells of a 96-well PVC microtiter plate. Plates were then wrapped in GLAD Press n′ Seal® followed by an incubation under stationary conditions at ambient temperature to establish the biofilms. After 24 h, the media was discarded from the wells and the plates were washed thoroughly with water. Stock solutions of predetermined concentrations of the test compound were then made in the necessary media. These stock solutions were aliquoted (100 μL) into the wells of the 96-well PVC microtiter plate with the established biofilms. Media alone was added to a subset of the wells to serve as a control. Sample Plates were then incubated for 24 h at 37° C. After incubation, the media was discarded from the wells and the plates were washed thoroughly with water. Plates were then stained with 100 μL of 0.1% solution of crystal violet (CV) and then incubated at ambient temperature for 30 min. Plates were washed with water again and the remaining stain was solubilized with 200 μL of 95% ethanol. A sample of 125 μL of solubilized CV stain from each well was transferred to the corresponding wells of a polystyrene microtiter dish. Biofilm dispersion was quantitated by measuring the OD540 of each well in which a negative control lane wherein no biofilm was formed served as a background and was subtracted out.

Test [2] concerns S. epidermidis. Put plainly: Inhibition of S. epidermidis biofilm formation (crystal violet). The conditions noted are these: Staphylococcus epidermidis. The class given is cell-based, Staphylococcus epidermidis. As for the experimental part:
as §1
(§2) Procedure to Determine the Inhibitory Effect of Test Compounds on E. faecium, MRSA, S. epidermidis, PAO1 and MDRAB Biofilm Formation:
(§3) Inhibition assays were performed by taking an overnight culture of bacterial strain and subculturing it at an OD600 of 0.01 into the necessary media (brain heart infusion for E. faecium, tryptic soy broth with a 0.5% glucose supplement (TSBG) for MRSA, Luria-Bertani (LB) media for MDRAB, Luria-Bertani media without NaCl (LBNS) for PAO1 and tryptic soy broth with a 0.5% glucose supplement and a 3.0% NaCl supplement (TGN) for S. epidermidis. Stock solutions of predetermined concentrations of the test compound were then made in the necessary media. These stock solutions were aliquoted (100 μL) into the wells of the 96-well PVC microtiter plate. Sample plates were then wrapped in GLAD Press n′ Seal® followed by an incubation under stationary conditions for 24 h at 37° C. After incubation, the media was discarded from the wells and the plates were washed thoroughly with water. Plates were then stained with 100 μL of 0.1% solution of crystal violet (CV) and then incubated at ambient temperature for 30 min. Plates were washed with water again and the remaining stain was solubilized with 200 μL of 95% ethanol. A sample of 125 μL of solubilized CV stain from each well was transferred to the corresponding wells of a polystyrene microtiter dish. Biofilm inhibition was quantitated by measuring the OD540 of each well in which a negative control lane wherein no biofilm was formed served as a background and was subtracted out.
as §3, with “2-(2-amino-1H-benzo[d]imidazol-6-ylcarbamoyl)-3,4,5,6-tetrachlorobenzoic acid hydrochloride” for “test compound”, “media. Samples were then doped with 10.0 μM FeSO4 with samples with no test compound to examine effects of 10.0 μM FeSO4 on biofilm formation.” for “media.”

The subject of test [3] is vancomycin-resistant Enterococcus faecium (VRE). Put plainly: Inhibition of VRE (E. faecium) biofilm formation (crystal violet). The class given is cell-based. The procedure:
as §1, §2, §3
as §3, with “2-(2-amino-1H-benzo[d]imidazol-6-ylcarbamoyl)-3,4,5,6-tetrachlorobenzoic acid hydrochloride” for “test compound”, “media. Samples were then doped with 10.0 μM FeSO4 with samples with no test compound to examine effects of 10.0 μM FeSO4 on biofilm formation.” for “media.”

Consider `Nc1nc2ccc(NC(=O)c3c(Cl)c(Cl)c(Cl)c(Cl)c3C(=O)O)cc2[nH]1` [Compound 3, 2-(2-amino-1H-benzo[d]imidazol-6-ylcarbamoyl)-3,4,5,6-tetrachlorobenzoic acid hydrochloride], for which the EC50 (in general, the concentration at which the effect is half-maximal) in test [1] was 74.8 µM; in test [1] (hydrochloride) it was 75 µM. The IC50 (in general, the concentration that inhibits the measured activity by half) in test [2] is 0.57 µM; in test [3], 1.4 µM.
